Measured values: patent US9072758B2, “Cyclic amide derivative” (MOCHIDA PHARMACEUTICAL CO., LTD., priority 2011, dated 2015)

Target: T1, GPR40 of human origin (Homo sapiens, UniProt O14842)
T1 construct: expressed in transfected cells
Experiment: Agonist action on GPR40 of human origin (Ca2+ fluctuation in a CHO cell strain stably expressing GPR40)
Type: cell-based
Conditions: Calcium 4 Assay Kit, fluorescence intensity variation
Description: A CHO cell strain stably expressing GPR40 of human origin was used to determine the agonist action of a title compound. This cell strain was seeded in a clear bottom 96 well plate at 2×10^4 cells/100 μL/well. The cell strain was cultured in a CO2 incubator overnight using a Ham's F-12 medium containing a 10% fetal bovine serum, 100 U/mL penicillin, 0.1 mg/mL streptomycin, and 400 μg/mL Geneticin. Calcium 4 Assay Kit (Molecular Devices) was used as a fluorescent calcium indicator. One mL of 77 mg/mL probenecid (Invitrogen) was added to 100 mL of a calcium indicator solution to prepare a solution (loading solution) mixed with a 20 mM HEPES-containing Hanks' balanced salt solution (HBSS) in equal proportions. To the cells from which the culture solution was removed, 200 μL of the loading solution was added, and the cells were cultured in a CO2 incubator for 1 hour. The title compound was diluted with a 20 mM HEPES-containing HBSS and was added to the cells by 50 μL, and the fluctuation of the Ca^2+ concentration was measured by an intracellular ion analyzer. The EC50 value of the title compound was calculated using the dose-response curve of fluorescence intensity variation.

T1 sequence (O14842 whole entry): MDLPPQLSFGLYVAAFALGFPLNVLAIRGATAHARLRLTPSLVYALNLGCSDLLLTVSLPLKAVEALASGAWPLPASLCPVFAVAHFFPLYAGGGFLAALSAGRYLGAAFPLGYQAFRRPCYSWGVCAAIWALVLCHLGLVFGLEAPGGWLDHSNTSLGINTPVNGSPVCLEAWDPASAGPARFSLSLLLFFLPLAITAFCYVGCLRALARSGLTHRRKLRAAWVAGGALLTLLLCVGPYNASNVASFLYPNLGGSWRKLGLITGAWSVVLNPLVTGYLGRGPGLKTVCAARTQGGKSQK

EC50, < 0.3 µM:
Cc1nc(OCCC(C)(C)O)ccc1-c1cccc2c1CC[C@H]2Oc1ccc(C2CC(=O)N[S+]2[O-])cc1 (single isomer, unassigned) [23(A)-a]
N#Cc1ccc(Oc2cccc3c2CC[C@H]3Oc2ccc(C3CC(=O)N[S+]3[O-])cc2)cc1 (single isomer, unassigned) [25(A)-b]
Cc1nc(OCCC(C)(C)O)ccc1Oc1cccc2c1CC[C@H]2Oc1ccc(C2CC(O)=N[S+]2[O-])cc1 (single isomer, unassigned) [51(A)-a]
Cc1nc(OCCC(C)(C)O)ccc1Oc1cccc2c1CC[C@H]2Oc1ccc(C2CC(O)=N[S+]2[O-])cc1 (single isomer, unassigned) [51(A)-b]
COc1ccc(Oc2cccc3c2CC[C@H]3Oc2ccc(C3CC(O)=N[S+]3[O-])cc2)cn1 (single isomer, unassigned) [52(A)-a]
COc1ccc(Oc2cccc3c2CC[C@H]3Oc2ccc(C3CC(O)=N[S+]3[O-])cc2)cn1 (single isomer, unassigned) [52(A)-b]
Cc1cccc(Oc2cccc3c2CC[C@H]3Oc2ccc(C3CC(O)=N[S+]3[O-])cc2)c1 (single isomer, unassigned) [53(A)-a]
Cc1cccc(Oc2cccc3c2CC[C@H]3Oc2ccc(C3CC(O)=N[S+]3[O-])cc2)c1 (single isomer, unassigned) [53(A)-b]
CCOCCOc1ccc(-c2cccc3c2CC[C@H]3Oc2ccc(C3CC(O)=N[S+]3[O-])cc2)c(C)n1 (single isomer, unassigned) [54(A)-a]
CCOCCOc1ccc(-c2cccc3c2CC[C@H]3Oc2ccc(C3CC(O)=N[S+]3[O-])cc2)c(C)n1 (single isomer, unassigned) [54(A)-b]
Cc1ncccc1Oc1cccc2c1CC[C@H]2Oc1ccc(C2CC(O)=N[S+]2[O-])cc1 (single isomer, unassigned) [55(A)-a]
Cc1ncccc1Oc1cccc2c1CC[C@H]2Oc1ccc(C2CC(O)=N[S+]2[O-])cc1 (single isomer, unassigned) [55(A)-b]
CCOCCOc1cc(C)c(-c2cccc3c2CC[C@H]3Oc2ccc(C3CC(O)=N[S+]3[O-])cc2)c(C)c1 (single isomer, unassigned) [Example 57]
CCOCCOc1cc(C)c(-c2cccc3c2CC[C@H]3Oc2ccc(C3CC(O)=N[S+]3[O-])cc2)c(C)c1 (single isomer, unassigned) [Example 58]
Cc1cc(OCCCS(C)(=O)=O)cc(C)c1-c1cccc2c1CC[C@H]2Oc1ccc(C2CC(=O)N[S+]2[O-])cc1 (single isomer, unassigned) [Example 59]
Cc1cccc(C)c1-c1cccc2c1CC[C@H]2Oc1ccc(C2CC(O)=N[S+]2[O-])cc1 (single isomer, unassigned) [Example 60]
COc1cc(C)c(-c2cccc3c2CC[C@H]3Oc2ccc(C3CC(O)=N[S+]3[O-])cc2)c(C)c1 (single isomer, unassigned) [Example 61]
Cc1nc(OCCCS(C)(=O)=O)ccc1-c1cccc2c1CC[C@H]2Oc1ccc(C2CC(O)=N[S+]2[O-])cc1 (single isomer, unassigned) [Example 62]
COc1ccc(-c2cccc3c2CC[C@H]3Oc2ccc(C3CC(O)=N[S+]3[O-])cc2)c(C)n1 (single isomer, unassigned) [Example 63]
[O-][S+]1N=C(O)CC1c1ccc(O[C@@H]2CCc3c(-c4ccccc4C(F)(F)F)cccc32)cc1 (single isomer, unassigned) [Example 64]
[O-][S+]1N=C(O)CC1c1ccc(O[C@@H]2CCc3c(-c4cccnc4C(F)(F)F)cccc32)cc1 (single isomer, unassigned) [Example 65]
Cc1ccccc1-c1cccc2c1CC[C@H]2Oc1ccc(C2CC(O)=N[S+]2[O-])cc1 (single isomer, unassigned) [Example 66]
Cc1ccc(F)cc1-c1cccc2c1CC[C@H]2Oc1ccc(C2CC(O)=N[S+]2[O-])cc1 (single isomer, unassigned) [Example 67]
COc1cccc(F)c1-c1cccc2c1CC[C@H]2Oc1ccc(C2CC(O)=N[S+]2[O-])cc1 (single isomer, unassigned) [Example 68]
CCOc1ccc(F)cc1-c1cccc2c1CC[C@H]2Oc1ccc(C2CC(O)=N[S+]2[O-])cc1 (single isomer, unassigned) [Example 69]
Cc1nc(OCCC(C)(C)O)ccc1-c1cccc2c1CC[C@H]2Oc1ccc(C2CC(=O)NS(=O)(=O)C2)cc1 (stereo partly drawn) [Example 36, 5-(4-(((R)-4-(6-(3-hydroxy-3-methylbutoxy)-2-methylpyridin-3-yl)-2,3-dihydro-1H-inden-1-yl)oxy)phenyl)-1,2-thiazinan-3-one 1,1-dioxide]
Cc1cccc(C)c1-c1cccc2c1CC[C@H]2Oc1ccc(C2CC(=O)NS(=O)(=O)C2)cc1 (stereo partly drawn) [Example 37, 5-(4-(((R)-4-(2,6-dimethylphenyl)-2,3-dihydro-1H-inden-1-yl)oxy)phenyl)-1,2-thiazinan-3-one 1,1-dioxide]
O=C1CC(c2ccc(O[C@@H]3CCc4c(-c5ccccc5C(F)(F)F)cccc43)cc2)CS(=O)(=O)N1 (stereo partly drawn) [Example 38, 5-(4-(((R)-4-(2-(trifluoromethyl)phenyl)-2,3-dihydro-1H-inden-1-yl)oxy)phenyl)-1,2-thiazinan-3-one 1,1-dioxide]
CCOCCOc1cc(C)c(-c2cccc3c2CC[C@H]3Oc2ccc(C3CC(=O)NS(=O)(=O)C3)cc2)c(C)c1 (stereo partly drawn) [Example 39, 5-(4-(((R)-4-(4-(2-ethoxyethoxy)-2,6-dimethylphenyl)-2,3-dihydro-1H-inden-1-yl)oxy)phenyl)-1,2-thiazinan-3-one 1,1-dioxide]
CCOCCOc1cc(C)c(-c2cccc3c2CC[C@H]3Oc2ccc(C3CC(=O)NS(=O)(=O)C3)cc2)c(C)c1 (stereo partly drawn) [Example 42, 5-(4-(((R)-4-(4-(2-ethoxyethoxy)-2,6-dimethylphenyl)-2,3-dihydro-1H-inden-1-yl)oxy)phenyl)-1,2-thiazinan-3-one 1,1-dioxide]
Cc1cccc(C)c1-c1cccc2c1CC[C@H]2Oc1ccc(C2CC(=O)NS(=O)(=O)C2)cc1 (stereo partly drawn) [Example 43, 5-(4-(((R)-4-(2,6-dimethylphenyl)-2,3-dihydro-1H-inden-1-yl)oxy)phenyl)-1,2-thiazinan-3-one 1,1-dioxide]
O=C1CC(c2ccc(O[C@@H]3CCc4c(-c5ccccc5C(F)(F)F)cccc43)cc2)CS(=O)(=O)N1 (stereo partly drawn) [Example 44, 5-(4-(((R)-4-(2-(trifluoromethyl)phenyl)-2,3-dihydro-1H-inden-1-yl)oxy)phenyl)-1,2-thiazinan-3-one 1,1-dioxide]
Cc1cc(OCCCS(C)(=O)=O)cc(C)c1-c1cccc2c1CC[C@H]2Oc1ccc(C2CC(=O)NS(=O)(=O)C2)cc1 (stereo partly drawn) [Example 45, 5-(4-(((R)-4-(2,6-dimethyl-4-(3-(methylsulfonyl)propoxy)phenyl)-2,3-dihydro-1H-inden-1-yl)oxy)phenyl)-1,2-thiazinan-3-one 1,1-dioxide]
COc1cc(C)c(-c2cccc3c2CC[C@H]3Oc2ccc(C3CC(=O)NS(=O)(=O)C3)cc2)c(C)c1 (stereo partly drawn) [Example 46, 5-(4-(((R)-4-(4-methoxy-2,6-dimethylphenyl)-2,3-dihydro-1H-inden-1-yl)oxy)phenyl)-1,2-thiazinan-3-one 1,1-dioxide]
Cc1cc(O[C@@H]2CCc3c(-c4c(C)cc(OCCC(C)(C)O)cc4C)cccc32)ccc1C1CC(=O)NS(=O)(=O)C1 (stereo partly drawn) [Example 47, 5-(4-(((R)-4-(4-(3-hydroxy-3-methylbutoxy)-2,6-dimethylphenyl)-2,3-dihydro-1H-inden-1-yl)oxy)-2-methylphenyl)-1,2-thiazinan-3-one 1,1-dioxide]
O=C1CC(c2ccc(O[C@@H]3CCc4c(Oc5ccccc5)cccc43)cc2)CS(=O)(=O)N1 (stereo partly drawn) [Example 48, 5-(4-(((R)-4-phenoxy-2,3-dihydro-1H-inden-1-yl)oxy)phenyl)-1,2-thiazinan-3-one 1,1-dioxide]
O=C1CC(c2ccc(O[C@@H]3CCc4c(Oc5ccccc5)cccc43)cc2)CS(=O)(=O)N1 (stereo partly drawn) [Example 49, 5-(4-(((R)-4-phenoxy-2,3-dihydro-1H-inden-1-yl)oxy)phenyl)-1,2-thiazinan-3-one 1,1-dioxide (C)]
